These results are taken from ChEMBL document CHEMBL3352246, “Design and synthesis of novel 5-(3,4,5-trimethoxybenzoyl)-4-aminopyrimidine derivatives as potent and selective phosphodiesterase 5 inhibitors: scaffold hopping using a pseudo-ring by intramolecular hydrogen bond formation” (Bioorg Med Chem Lett, 2014).

For experiment [1], the target named is cGMP-specific 3',5'-cyclic phosphodiesterase (Canis lupus familiaris, UniProt O77746). Nature of the experiment: Inhibition of canine lung PDE5 using [3H]cGMP substrate by radiolabeled nucleotide method.
The nature of experiment [2]: Selectivity index, ratio of IC50 for light activated bovine retina PDE6 to IC50 for canine lung PDE5.
Another experiment concerns Corpus cavernosum. The experiment is described as follows: Relaxant activity in rabbit corpus cavernosum assessed as reduction in phenyepinephrine-induced contraction. The format is functional, tissue-based. Particulars: Oryctolagus cuniculus.
Experiment [3] deals with cGMP-specific 3',5'-cyclic phosphodiesterase (Homo sapiens, UniProt O76074). The experiment is described as follows: Inhibition of PDE5 (unknown origin).
A short description of experiment [4]: Selectivity index, ratio of IC50 for light activated bovine retina PDE6 to IC50 for PDE5 (unknown origin).
A short description of experiment [5]: Selectivity index, ratio of IC50 for trypsin activated bovine retina PDE6 to IC50 for PDE5 (unknown origin).
Experiment [6] can be described thus: Inhibition of light activated bovine retina PDE6 using [3H]cGMP substrate by radiolabeled nucleotide method. The arrangement: species or system Bos taurus.

In experiment [1], `COc1ccc(CNc2nc(OCc3ncccn3)ncc2C(=O)c2cc(OC)c(OC)c(OC)c2)cc1Cl` registered an IC50 of 3.4 nM. For the same molecule, the Ratio IC50 in experiment [2] is 560. For the same molecule, in the experiment with Corpus cavernosum, the EC50 was 3.1 nM.
In the case of `COc1ccc(CN(C)c2nc(OCc3ccccn3)ncc2C(=O)c2cc(OC)c(OC)c(OC)c2)cc1Cl`, the IC50 in experiment [1] stood at 5 nM.
Turning to `COc1ccc(CNc2nc(OCc3ccccn3)ncc2C(=O)c2cc(OC)c(OC)c(OC)c2)cc1Cl`, the IC50 in experiment [1] amounted to 0.13 nM. For the same molecule, in experiment [2], the Ratio IC50 was 2400. The EC50 in the experiment on Corpus cavernosum was found to be 53 nM.
The molecule `COc1ccc(COc2nc(OCc3ccccn3)ncc2C(=O)c2cc(OC)c(OC)c(OC)c2)cc1Cl` yielded an IC50 in experiment [1] of 1.5 nM.
The molecule `COc1ccc(CNc2nc(N3CCOCC3)ncc2C(=O)c2cc(OC)c(OC)c(OC)c2)cc1Cl` displayed an IC50 in experiment [1] of 1.5 nM. The Ratio IC50 in experiment [2] was 6700. Besides, the EC50 in the experiment with Corpus cavernosum is > 100 nM.
`COc1ccc(CNc2nc(N3CCCCC3)ncc2C(=O)c2cc(OC)c(OC)c(OC)c2)cc1Cl`: it took 0.74 nM to reach half-maximal inhibition in experiment [1] (IC50). For the same molecule, in experiment [2], the Ratio IC50 came out at 2000.
`COc1ccc(CNc2cc(OCc3ccccn3)ccc2C(=O)c2cc(OC)c(OC)c(OC)c2)cc1Cl` came in with an IC50 in experiment [1] of 0.66 nM. For the same molecule, the Ratio IC50 in experiment [2] is 18000. Further, the EC50 with Corpus cavernosum was > 100 nM.
On to `COC(=O)c1c(-c2cc(OC)c(OC)c(OC)c2)c2ccc(OCc3ccccn3)cc2c(=O)n1-c1ccc(N)cc1`, for which the IC50 in experiment [3] came to 1 nM. Moreover, the Ratio IC50 in experiment [4] came to 650; in experiment [5], 32.
In experiment [1], `COc1ccc(CNc2nc(N3CCc4ccccc4C3)ncc2C(=O)c2cc(OC)c(OC)c(OC)c2)cc1Cl` returned an IC50 of 0.053 nM. Further, the Ratio IC50 in experiment [2] was found to be 3200. Moreover, the EC50 with Corpus cavernosum is > 100 nM.
`COc1ccc(CNc2nc(OCc3ccccc3)ncc2C(=O)c2cc(OC)c(OC)c(OC)c2)cc1Cl` had an IC50 in experiment [1] of 0.38 nM. In addition, the Ratio IC50 in experiment [2] stood at 1600. The EC50 in the experiment on Corpus cavernosum is > 100 nM.
Regarding `COCCOc1ncc(C(=O)c2cc(OC)c(OC)c(OC)c2)c(NCc2ccc(OC)c(Cl)c2)n1`, the IC50 in experiment [1] is 1.7 nM. The Ratio IC50 in experiment [2] turned out to be 2200. For the same molecule, the EC50 in the experiment with Corpus cavernosum amounted to 10 nM.
In the same order, the values of `COc1ccc(CNc2nc(N(C)CCO)ncc2C(=O)c2cc(OC)c(OC)c(OC)c2)cc1Cl` are 2.7 nM, > 3700 and 29 nM.
Consider `COC(=O)c1nc(N2CCC(O)CC2)c2cc(OCc3ccccc3)ccc2c1-c1cc(OC)c(OC)c(OC)c1`, for which the IC50 in experiment [1] came out at 2 nM; in experiment [6], 0.59 µM.
In turn, `COc1ccc(CNc2nc(N3CCOC(CO)C3)ncc2C(=O)c2cc(OC)c(OC)c(OC)c2)cc1Cl` (stereo not given) had an IC50 in experiment [1] of 1.8 nM. In experiment [2], the Ratio IC50 was determined as 2800. The EC50 in the experiment with Corpus cavernosum came out at 11 nM.
As for `COC(=O)c1ncc2cc(OCc3ccccn3)ccc2c1-c1cc(OC)c(OC)c(OC)c1`, the IC50 in experiment [1] was 34 nM; in experiment [6], > 10 µM.
For `COC(=O)c1nc(NCc2ccc(OC)c(Cl)c2)c2cc(OCc3ccccc3)ccc2c1-c1cc(OC)c(OC)c(OC)c1` the same measures were 3.5 nM and > 10 µM.
